Experiments:
HIV-1 Bal = assay: Drug susceptibility assay, PM-1 cells infected with HIV-1 Bal, combinations with CCR5 inhibitors (p24 assay); type: cell-based; details: for Combination Indices at % HIV Inhibition (Confidence Interval) 50% / Combination Indices at % HIV Inhibition (Confidence Interval) 75% / Combination Indices at % HIV Inhibition (Confidence Interval) 90%: 95% confidence interval in parentheses
Experimental: (§1) Virus and cell lines. The T-cell lines, MT-2 and PM-1 were obtained through the AIDS Research and Reference Reagent Program, NIAID, and were contributed by Dr. D. Richman and Dr. R. Gallo, respectively. Both cell lines were cultured in RPMI 1640 medium supplemented with 10% fetal bovine serum, 2 mM L-glutamine and sub-cultured twice a week. The LAI strain of HIV-1 was obtained from the Fred Hutchinson Cancer Research Center, and the Bal strain was from NIH. Both virus stocks were amplified and titered in MT-2 cells (LAI) and PM-1 cells (Bal) using a virus infectivity assay.
(§2) Drug Susceptibility and Cytotoxicity Assays. For drug susceptibility assays, MT-2 cells were infected with HIV-1 LAI (or PM-1 cells with HIV-1 Bal) at an MOI of 0.005, and seeded into 96-well microtiter plates (0.1×10^6 cells/ml) containing serial dilutions of test compounds. […] Each drug ratio consisted of an array of 3-fold serial dilutions, and was performed in quadruplicate. The plates were incubated at 37° C./5% CO2. The MT-2 cells infected with HIV-1 LAI were incubated for 5 days. On day-five post-infection, 20 μl from each well was harvested and quantitated by a reverse transcriptase (RT) assay, or in samples involving non-nucleoside RT inhibitors, an MTS assay. The PM-1 cells infected with HIV-1 Bal and used for studying the combinations with CCR5 inhibitors were incubated for six days. On day-six post-infection, 20 μl from each well was harvested, 20- and 50-fold diluted and quantitated by p24 assay. Cytotoxicity assays were performed using uninfected cells, exposed to the same drug combinations, and incubated for six days. Cell viability was determined by an MTS assay. The CC50 values were calculated by using the exponential form of the median effect equation as mentioned below for calculation of EC50.
(§3) Analysis of Drug Combination Effects. For determination of CI values, drugs were diluted in a fixed ratio and multiple ratios were analyzed. The drug serial dilutions spanned a range of concentrations near the EC50 value of each compound, so that equivalent antiviral activities could be compared. Concentration-response curves were estimated for each individual drug and every combination using the median-effect equation. The equation was fit using a nonlinear regression routine (Proc Nlin) in PC SAS version 8.01 (SAS Institute Inc., SAS Version 8.01, Cary, N.C.: SAS Institute Inc., 1990).
(§4) In this equation, Fa stands for “fraction affected,” and represents the fraction of the viral load that has been inactivated. […] ED50 is drug concentration that is expected to reduce the amount of virus by 50%, and m is a parameter that reflects the slope of the concentration-response curve.
(§5) To assess antiviral effects of different drug combination treatments, combination indices (CIs) were calculated according to Chou and Rideout. The combination index was computed as CI=[D]1/[Dm]1+[D]2/[Dm]2
(§6) In this equation [Dm]1 and [Dm]2 are the concentrations of drugs that would individually produce a specific level of effect, while [D]1 and [D]2 are the concentrations of drugs in combination that would produce the same level of effect.
(§7) Theoretically, additivity is implied if the CI is equal to one, synergy if the CI is less than one, and antagonism if the CI is greater than one. […] At best, we can construct a range that contains the likely values for the CI, given the noise in the data. In this report, these ranges are reported in parentheses next to each point estimate of the CI. […] If the range fell entirely above 1.0, we would infer antagonistic behavior. If the range were to include 1.0, we would infer additivity.
(§8) In carrying out the combination experiments below, the EC50 for Compound 1 and each comparator compound was determined during the course of each study, and used in the subsequent data analysis.

HIV-1 LAI = assay: microbe, parasite or virus in culture; details: for Combination Indices at % HIV Inhibition (Confidence Interval) 50% / Combination Indices at % HIV Inhibition (Confidence Interval) 75% / Combination Indices at % HIV Inhibition (Confidence Interval) 90% / Overall Result (combined anti-HIV effect): Compound 1 + named drug; for Combination Indices at % HIV Inhibition (Confidence Interval) 50% / Combination Indices at % HIV Inhibition (Confidence Interval) 75% / Combination Indices at % HIV Inhibition (Confidence Interval) 90%: 95% confidence interval in parentheses; for Overall Result (combined anti-HIV effect): all ratios, MT-2 cells, HIV-1 LAI
Experimental: as §1, §2, §3, §4, §5, §6, §7, §8

uninfected cells = assay: Cytotoxicity assay of drug combinations, uninfected cells, MTS assay; type: cell-based; details: Compound 1 + other drug at the highest concentrations tested, 6 days
Experimental: as §2, with “Assays.” for “Assays. For drug susceptibility assays, MT-2 cells were infected with HIV-1 LAI (or PM-1 cells with HIV-1 Bal) at an MOI of 0.005, and seeded into 96-well microtiter plates (0.1×10^6 cells/ml) containing serial dilutions of test compounds.”, “The MT-2 cells infected with HIV-1 LAI were incubated for 5 days.” left out

[1] = Compound 1 + CCR5 inhibitor, EC50 ratio 1:1, PM-1 cells, HIV-1 Bal
[2] = Compound 1 + CCR5 inhibitor, EC50 ratio 1:2.5, PM-1 cells, HIV-1 Bal
[3] = Compound 1 + CCR5 inhibitor, EC50 ratio 2.5:1, PM-1 cells, HIV-1 Bal
[4] = EC50 ratio 1:1 (Compound 1:comparator)
[5] = EC50 ratio 1:2.5 (Compound 1:comparator)
[6] = EC50 ratio 2.5:1 (Compound 1:comparator)

CCO/N=C(\c1ccc(Br)cc1)C1CCN(C2(C)CCN(C(=O)c3c(C)cc[n+]([O-])c3C)CC2)CC1 [SchC]
Combination Indices at % HIV Inhibition (Confidence Interval) 50% (HIV-1 Bal; [1]): 0.19 (0.14, 0.25) | Combination Indices at % HIV Inhibition (Confidence Interval) 75% (HIV-1 Bal; [1]): 0.46 (0.29, 0.63) | Combination Indices at % HIV Inhibition (Confidence Interval) 90% (HIV-1 Bal; [1]): 1.12 (0.4, 1.83) | Combination Indices at % HIV Inhibition (Confidence Interval) 50% (HIV-1 Bal; [2]): 0.50 (0.38, 0.61) | Combination Indices at % HIV Inhibition (Confidence Interval) 75% (HIV-1 Bal; [2]): 0.92 (0.64, 1.21) | Combination Indices at % HIV Inhibition (Confidence Interval) 90% (HIV-1 Bal; [2]): 1.74 (0.83, 2.65) | Combination Indices at % HIV Inhibition (Confidence Interval) 50% (HIV-1 Bal; [3]): 0.08 (0.05, 0.11) | Combination Indices at % HIV Inhibition (Confidence Interval) 75% (HIV-1 Bal; [3]): 0.21 (0.14, 0.28) | Combination Indices at % HIV Inhibition (Confidence Interval) 90% (HIV-1 Bal; [3]): 0.54 (0.21, 0.88) | Overall Result (combined anti-HIV effect) (HIV-1 Bal; Compound 1 + CCR5 inhibitor, all ratios, PM-1 cells, HIV-1 Bal): Additive- | EC50 (HIV-1 Bal; single drug, PM-1 cells infected with HIV-1 Bal, 6 days, p24 assay): 0.9 nM

CON(Cc1ccc(F)cc1)C(=O)C=C(O)C(=O)O [Compound 2, 3-[(4-Fluorobenzyl)methoxycarbamoyl]-2-hydroxyacrylic acid]
Combination Indices at % HIV Inhibition (Confidence Interval) 50% (HIV-1 LAI; [4]): 0.48 (0.39, 0.58) | Combination Indices at % HIV Inhibition (Confidence Interval) 75% (HIV-1 LAI; [4]): 0.51 (0.37, 0.65) | Combination Indices at % HIV Inhibition (Confidence Interval) 90% (HIV-1 LAI; [4]): 0.54 (0.31, 0.76) | Combination Indices at % HIV Inhibition (Confidence Interval) 50% (HIV-1 LAI; [5]): 0.44 (0.36, 0.53) | Combination Indices at % HIV Inhibition (Confidence Interval) 75% (HIV-1 LAI; [5]): 0.51 (0.37, 0.65) | Combination Indices at % HIV Inhibition (Confidence Interval) 90% (HIV-1 LAI; [5]): 0.59 (0.34, 0.85) | Combination Indices at % HIV Inhibition (Confidence Interval) 50% (HIV-1 LAI; [6]): 0.50 (0.36, 0.63) | Combination Indices at % HIV Inhibition (Confidence Interval) 75% (HIV-1 LAI; [6]): 0.70 (0.44, 0.97) | Combination Indices at % HIV Inhibition (Confidence Interval) 90% (HIV-1 LAI; [6]): 1.00 (0.41, 1.59) | Overall Result (combined anti-HIV effect) (HIV-1 LAI): moderate synergistic | Overall Result (combined anti-HIV effect) (HIV-1 LAI; listed as BMS-538203): Moderate- | EC50 (HIV-1 LAI; Human immunodeficiency virus 1, MT2, 120 h): 79 nM | Cytotoxicity of the drug combination (uninfected cells): No significant cytotoxicity
